Assays:
MCF7 = assay: NCI 60 cell panel SRB screen; type: cell-based; settings: Homo sapiens
NCI/ADR-RES = assay: NCI 60 cell panel SRB screen; type: cell-based; settings: Homo sapiens
HCC-2998 = assay: NCI 60 cell panel SRB screen; type: cell-based; settings: Homo sapiens
SNB-19 = assay: NCI 60 cell panel SRB screen; type: cell-based; settings: Homo sapiens
UO-31 = assay: NCI 60 cell panel SRB screen; type: cell-based; settings: Homo sapiens
full NCI 60 cell panel = assay: NCI 60 cell panel SRB screen, whole panel; type: cell-based, human
Excerpt: Aiming to evaluate the general antitumour activity of the synthesised phthalazines, the structures of the final compounds were submitted to National Cancer Institute “NCI” (www.dtp.nci.nih.gov), Bethesda, Maryland, USA. In vitro NCI anticancer screening involves two-stage process, the first stage started with the evaluation of the selected candidates against the full NCI 60 cell lines panel representing leukaemia, non-small cell lung cancer, melanoma, colon, CNS, breast, ovarian, renal and prostate cancers at a single dose of 10 µM. NCI selection is based on degree of structure variation and application of computer modelling techniques to prioritise compounds based on their ability to add diversity to the NCI small molecule compound collection.
Eight compounds (6b, 6e, 7b, 13a, 13c, 16a, 16d and 17a) were selected by NCI for further 5 log dose screening against full NCI 60 cell panel. All the 60 cell lines, representing nine tumour subpanels (leukaemia, non-small cell lung cancer, colon cancer, CNS cancer, prostate cancer, melanoma, ovarian cancer, renal cancer and breast cancer) which were incubated at five different concentrations (0.01, 0.1, 1, 10 and 100 µM) of each of the test compounds. The outcomes were used to create log concentration vs % growth inhibition curves, then three response parameters (GI50, TGI and LC50) were calculated for each cell line, (Tables S4 and S5 in Supplementary material).
The human tumor cell lines of the cancer-screening panel were grown in RPMI 1640 medium containing 5% fetal bovine serum and […] L-glutamine. For a typical screening experiment, cells are inoculated into 96 well microtiter plates in 100 ml at plating densities ranging from 5000 to 40,000 cells/well depending on the doubling time of individual cell lines. After cell inoculation, the microtiter plates are incubated at 37 °C, 5% CO2, 95% air and 100%
relative humidity for 24 h prior to addition of experimental drugs. After 24 h, two plates of each cell line are fixed in situ with TCA, to represent a measurement of the cell population for each cell line at the time of drug addition (Tz). Experimental drugs are dissolved in dimethyl sulfoxide at 400-fold the desired final maximum test concentration and stored frozen prior to use. At the time of drug addition, an aliquot of frozen concentrate is thawed and diluted to twice the desired final maximum test concentration with complete medium containing […] Gentamicin. Additional four, 10-fold or ½log serial dilutions are made to provide a total of five drug concentrations plus control. Aliquots of […] of these different drug dilutions are added to the appropriate microtiter wells already containing 100 ml of medium, resulting in the required final drug concentrations. Following drug addition, the plates are incubated for an additional 48 h at 37 °C, 5% CO2, 95% air, and 100% relative humidity. For adherent cells, the assay is terminated by the addition of cold TCA. Cells are fixed in situ by the gentle addition of […] of cold 50% (w/v) TCA (final concentration,10% TCA) and incubated for 60 min at 4 °C. The supernatant is discarded, and the plates are washed five times with tap water and air dried. Sulforhodamine B (SRB) solution (100 ml) at 0.4% (w/v) in 1% acetic acid is added to each well, and plates are incubated for 10 min at room temperature. After staining, unbound dye is removed by washing five times with 1% acetic acid and the plates are air dried. Bound stain is subsequently dissolved with 10 μM trizma base, and the absorbance is read on an automated plate reader at a wavelength of 515 nm. For suspension cells, the methodology is the same except that the assay is terminated by fixing settled cells at the bottom of the wells by gently adding […] of 80% TCA (final concentration, 16% TCA). […]

OVCAR-8 = assay: NCI 60 cell panel SRB screen; type: cell-based; settings: Homo sapiens
A549/ATCC = assay: NCI 60 cell panel SRB screen; type: cell-based; settings: Homo sapiens
RPMI-8226 = assay: NCI 60 cell panel SRB screen; type: cell-based; settings: Homo sapiens
NCI-H226 = assay: NCI 60 cell panel SRB screen; type: cell-based; settings: Homo sapiens
ACHN = assay: NCI 60 cell panel SRB screen; type: cell-based; settings: Homo sapiens
MDA-MB 231/ATCC = assay: NCI 60 cell panel SRB screen; type: cell-based; settings: Homo sapiens
HOP-62 = assay: NCI 60 cell panel SRB screen; type: cell-based; settings: Homo sapiens
SF-295 = assay: NCI 60 cell panel SRB screen; type: cell-based; settings: Homo sapiens
T-47D = assay: NCI 60 cell panel SRB screen; type: cell-based; settings: Homo sapiens, T47D
K-562 = assay: NCI 60 cell panel SRB screen; type: cell-based; settings: Homo sapiens, K562
PC-3 = assay: NCI 60 cell panel SRB screen; type: cell-based; settings: Homo sapiens
NCI-H522 = assay: NCI 60 cell panel SRB screen; type: cell-based; settings: Homo sapiens
NCI-H23 = assay: NCI 60 cell panel SRB screen; type: cell-based; settings: Homo sapiens
[1] = 5 log dose, 48 h, read-out: LC50 (the source's name)
[2] = single dose 10 μM, read-out: percent cell growth promotion

`Cc1nnc(Nc2ccc(NC(=O)Nc3ccc(Cl)cc3)cc2)c2ccccc12` [Compound 6e, 1–(4-Chlorophenyl)-3–(4-(4-methylphthalazin-1-ylamino)phenyl)urea] gave a GI50 (MCF7; MCF7) of 2.21 µM, an IC (TGI) (MCF7; MCF7, read-out: TGI) of 10.9 µM and an activity at 10 µM (MCF7; MCF7, read-out: percent cell growth promotion) of 24.9%. The CC50 (MCF7; MCF7, 5 log dose, 48 h, read-out: LC50 (the source's name)) was 68.7 µM, the GI50 (NCI/ADR-RES; 5 log dose) was 3.63 µM and the IC (TGI) (NCI/ADR-RES; 5 log dose) was 14.9 µM. The CC50 (NCI/ADR-RES; [1]) was greater than 100 µM, the activity at 10 µM (NCI/ADR-RES; [2]) was 45.1% and the GI50 (HCC-2998; HCC-2998, 5 log dose) was 2.84 µM. The IC (TGI) (HCC-2998; HCC-2998, 5 log dose) was 8.09 µM, the LC50 (50% lethal concentration) (HCC-2998; HCC-2998, 5 log dose, 48 h) was 27.8 µM and the activity at 10 µM (HCC-2998; HCC-2998, single dose 10 μM, read-out: percent cell growth promotion) was 40.5%. It also gave a GI50 (SNB-19; SNB-19, 5 log dose) of 2.77 µM, an IC (TGI) (SNB-19; SNB-19, 5 log dose) of 8.72 µM and a CC50 (SNB-19; SNB-19, 5 log dose, 48 h, read-out: LC50 (the source's name)) of 56.6 µM. It also gave an activity at 10 µM (SNB-19; SNB-19, single dose 10 μM, read-out: percent cell growth promotion) of 16.2%, a GI50 (UO-31; UO-31, 5 log dose) of 2.14 µM and an IC (TGI) (UO-31; UO-31, 5 log dose) of 6.01 µM. It also gave a CC50 (UO-31; UO-31, 5 log dose, 48 h, read-out: LC50 (the source's name)) of 31.8 µM, an activity at 10 µM (UO-31; UO-31, single dose 10 μM, read-out: percent cell growth promotion) of 51.2% and an activity at 10 µM (full NCI 60 cell panel; Homo sapiens, 60 cell, mean over the panel, single dose 10 μM, read-out: Mean percent cell growth promotion) of 23.2%. For the same compound, the inhibition at 10 µM (full NCI 60 cell panel; Homo sapiens, 60 cell, single dose 10 µM, read-out: cell growth inhibition against various cell lines) was greater than 90%, the “cell growth inhibition, in words” value (full NCI 60 cell panel; single dose 10 µM) was “lethal effect (above 100% inhibition) against several leukaemia, melanoma, renal cancer cell lines” and the GI50 (OVCAR-8; OVCAR-8, 5 log dose) was 3.35 µM. The IC (TGI) (OVCAR-8; OVCAR-8, 5 log dose) was 9.32 µM, the CC50 (OVCAR-8; OVCAR-8, 5 log dose, 48 h, read-out: LC50 (the source's name)) was 47.4 µM and the activity at 10 µM (OVCAR-8; OVCAR-8, single dose 10 μM, read-out: percent cell growth promotion) was 31.4%. For the same compound, the GI50 (A549/ATCC; 5 log dose) was 3.24 µM, the IC (TGI) (A549/ATCC; 5 log dose) was 8.59 µM and the LC50 (concentration killing 50% of cells) (A549/ATCC; 5 log dose, 48 h) was 37.9 µM. It also gave an activity at 10 µM (A549/ATCC; [2]) of 26.4%, a GI50 (RPMI-8226; RPMI-8226, 5 log dose) of 2.6 µM and an IC (TGI) (RPMI-8226; RPMI-8226, 5 log dose) of 6.48 µM. It also gave a CC50 (RPMI-8226; RPMI-8226, 5 log dose, 48 h, read-out: LC50 (the source's name)) greater than 100 µM, an activity at 10 µM (RPMI-8226; RPMI-8226, single dose 10 μM, read-out: percent cell growth promotion) of -11.9% and a GI50 (NCI-H226; NCI-H226, 5 log dose) of 3.61 µM. The IC (TGI) (NCI-H226; NCI-H226, 5 log dose) was 15.9 µM, the CC50 (NCI-H226; NCI-H226, 5 log dose, 48 h, read-out: LC50 (the source's name)) was 64.6 µM and the activity at 10 µM (NCI-H226; NCI-H226, single dose 10 μM, read-out: percent cell growth promotion) was 71.9%. For the same compound, the GI50 (ACHN; 5 log dose) was 1.84 µM, the IC (TGI) (ACHN; 5 log dose) was 3.69 µM and the CC50 (ACHN; [1]) was 7.41 µM. The activity at 10 µM (ACHN; [2]) was 58.8%, the GI50 (MDA-MB 231/ATCC; MDA-MB-231) was 2.38 µM and the IC (TGI) (MDA-MB 231/ATCC; MDA-MB-231, read-out: TGI) was 5.94 µM. The activity at 10 µM (MDA-MB 231/ATCC; MDA-MB-231, read-out: percent cell growth promotion) was 23.1%, the CC50 (MDA-MB 231/ATCC; MDA-MB-231, MDA-MDA 231/ATCC, 5 log dose, 48 h, read-out: LC50 (the source's name)) was 33.9 µM and the GI50 (HOP-62; HOP-62, 5 log dose) was 1.81 µM. For the same compound, the IC (TGI) (HOP-62; HOP-62, 5 log dose) was 3.7 µM, the CC50 (HOP-62; HOP-62, 5 log dose, 48 h, read-out: LC50 (the source's name)) was 7.56 µM and the activity at 10 µM (HOP-62; HOP-62, single dose 10 μM, read-out: percent cell growth promotion) was 44.2%. For the same compound, the GI50 (SF-295; SF-295, 5 log dose) was 2.04 µM, the IC (TGI) (SF-295; SF-295, 5 log dose) was 4.21 µM and the CC50 (SF-295; SF-295, 5 log dose, 48 h, read-out: LC50 (the source's name)) was 8.68 µM. The activity at 10 µM (SF-295; SF-295, single dose 10 μM, read-out: percent cell growth promotion) was 4.8%, the GI50 (T-47D) was 2.06 µM and the IC (TGI) (T-47D; read-out: TGI) was 5.08 µM. For the same compound, the activity at 10 µM (T-47D; read-out: percent cell growth promotion) was 8.43%, the CC50 (T-47D; T-47D, 5 log dose, 48 h, read-out: LC50 (the source's name)) was 56.4 µM and the GI50 (K-562; K-562, 5 log dose) was 2.2 µM. For the same compound, the IC (TGI) (K-562; K-562, 5 log dose) was 4.67 µM, the CC50 (K-562; K-562, 5 log dose, 48 h, read-out: LC50 (the source's name)) was 9.92 µM and the activity at 10 µM (K-562; K-562, single dose 10 μM, read-out: percent cell growth promotion) was -16.7%. For the same compound, the GI50 (PC-3; PC-3, 5 log dose) was 3.49 µM, the IC (TGI) (PC-3; PC-3, 5 log dose) was 11.9 µM and the CC50 (PC-3; PC-3, 5 log dose, 48 h, read-out: LC50 (the source's name)) was 62.7 µM. For the same compound, the activity at 10 µM (PC-3; PC-3, single dose 10 μM, read-out: percent cell growth promotion) was 22.8%, the GI50 (NCI-H522; NCI-H522, 5 log dose) was 1.84 µM and the IC (TGI) (NCI-H522; NCI-H522, 5 log dose) was 3.88 µM. For the same compound, the CC50 (NCI-H522; NCI-H522, 5 log dose, 48 h, read-out: LC50 (the source's name)) was 8.21 µM, the activity at 10 µM (NCI-H522; NCI-H522, single dose 10 μM, read-out: percent cell growth promotion) was 30.3% and the GI50 (NCI-H23; NCI-H23, 5 log dose) was 2.38 µM. For the same compound, the IC (TGI) (NCI-H23; NCI-H23, 5 log dose) was 6.31 µM, the CC50 (NCI-H23; NCI-H23, 5 log dose, 48 h, read-out: LC50 (the source's name)) was 40.9 µM and the activity at 10 µM (NCI-H23; NCI-H23, single dose 10 μM, read-out: percent cell growth promotion) was 48.8%.

From paper PMC6691788, “Design and synthesis of phthalazine-based compounds as potent anticancer agents with potential antiangiogenic activity via VEGFR-2 inhibition” (Journal of Enzyme Inhibition and Medicinal Chemistry, 2019)
